# Experimental data taken from the supplement of paper PMC8882468.
# System: HCI-002 (organoid from a triple-negative breast cancer xenograft)
# Test: CTG-3D luminescence at 96 h relative to day-0 seeding control (ratio to day 0); higher = more growth / less cytotoxicity; PDxO 3D drug screen, 96 h, CTG-3D normalised to day-0 seeding control.
# Conditions: 12.5 pM; days in culture: 191
row,Compound,CTG-3D luminescence at 96 h
1,CC(C)(C(=O)NCC(F)(F)C(F)(F)F)C(=O)N[C@@H]1C(=O)Nc2ccccc2-c2ccccc21,2.82
2,CCN(c1cc(C#CCN2CCOCC2)cc(C(=O)NCc2c(C)cc(C)[nH]c2=O)c1C)[C@H]1CC[C@H](N(C)CCOC)CC1,3.6
3,NC(=O)Nc1cc(-c2cccc(F)c2)sc1C(=O)N[C@H]1CCCNC1 [AZD7762],2.47
4,O=C(/C=C/c1cccnc1)NCCCCC1CCN(C(=O)c2ccccc2)CC1 [FK866],2.81
5,CCc1c2c(nc3ccc(O)cc13)-c1cc3c(c(=O)n1C2)COC(=O)[C@]3(O)CC [SN-38],2.67
6,CCN1CCN(Cc2ccc(Nc3ncc(F)c(-c4cc(F)c5nc(C)n(C(C)C)c5c4)n3)nc2)CC1 [abemaciclib],2.72
7,C=CCn1c(=O)c2cnc(Nc3ccc(N4CCN(C)CC4)cc3)nc2n1-c1cccc(C(C)(C)O)n1 [adavosertib],2.59

# Same assay, conditions: 12.5 pM; days in culture: 209
row,Compound,CTG-3D luminescence at 96 h
1,CC(C)(C(=O)NCC(F)(F)C(F)(F)F)C(=O)N[C@@H]1C(=O)Nc2ccccc2-c2ccccc21,2.45
2,CCN(c1cc(C#CCN2CCOCC2)cc(C(=O)NCc2c(C)cc(C)[nH]c2=O)c1C)[C@H]1CC[C@H](N(C)CCOC)CC1,2.93
3,NC(=O)Nc1cc(-c2cccc(F)c2)sc1C(=O)N[C@H]1CCCNC1 [AZD7762],2.16
4,O=C(/C=C/c1cccnc1)NCCCCC1CCN(C(=O)c2ccccc2)CC1 [FK866],2.49
5,CCc1c2c(nc3ccc(O)cc13)-c1cc3c(c(=O)n1C2)COC(=O)[C@]3(O)CC [SN-38],2.21
6,CCN1CCN(Cc2ccc(Nc3ncc(F)c(-c4cc(F)c5nc(C)n(C(C)C)c5c4)n3)nc2)CC1 [abemaciclib],2.24
7,C=CCn1c(=O)c2cnc(Nc3ccc(N4CCN(C)CC4)cc3)nc2n1-c1cccc(C(C)(C)O)n1 [adavosertib],2.27

# Same assay, conditions: 12.5 pM; days in culture: 227
row,Compound,CTG-3D luminescence at 96 h
1,CC(C)(C(=O)NCC(F)(F)C(F)(F)F)C(=O)N[C@@H]1C(=O)Nc2ccccc2-c2ccccc21,5.87
2,CCN(c1cc(C#CCN2CCOCC2)cc(C(=O)NCc2c(C)cc(C)[nH]c2=O)c1C)[C@H]1CC[C@H](N(C)CCOC)CC1,4.96
3,NC(=O)Nc1cc(-c2cccc(F)c2)sc1C(=O)N[C@H]1CCCNC1 [AZD7762],5.71
4,O=C(/C=C/c1cccnc1)NCCCCC1CCN(C(=O)c2ccccc2)CC1 [FK866],5.05
5,CCc1c2c(nc3ccc(O)cc13)-c1cc3c(c(=O)n1C2)COC(=O)[C@]3(O)CC [SN-38],5.46
6,CCN1CCN(Cc2ccc(Nc3ncc(F)c(-c4cc(F)c5nc(C)n(C(C)C)c5c4)n3)nc2)CC1 [abemaciclib],5.48
7,C=CCn1c(=O)c2cnc(Nc3ccc(N4CCN(C)CC4)cc3)nc2n1-c1cccc(C(C)(C)O)n1 [adavosertib],6.7

# Same assay, conditions: 0.00025 µM; days in culture: 62
row,Compound,CTG-3D luminescence at 96 h
1,CC(C)(C(=O)NCC(F)(F)C(F)(F)F)C(=O)N[C@@H]1C(=O)Nc2ccccc2-c2ccccc21,2.3
2,CCN(c1cc(C#CCN2CCOCC2)cc(C(=O)NCc2c(C)cc(C)[nH]c2=O)c1C)[C@H]1CC[C@H](N(C)CCOC)CC1,3.06
3,NC(=O)Nc1cc(-c2cccc(F)c2)sc1C(=O)N[C@H]1CCCNC1 [AZD7762],2.46
4,O=C(/C=C/c1cccnc1)NCCCCC1CCN(C(=O)c2ccccc2)CC1 [FK866],2.55
5,CCc1c2c(nc3ccc(O)cc13)-c1cc3c(c(=O)n1C2)COC(=O)[C@]3(O)CC [SN-38],2.44
6,CCN1CCN(Cc2ccc(Nc3ncc(F)c(-c4cc(F)c5nc(C)n(C(C)C)c5c4)n3)nc2)CC1 [abemaciclib],2.58
7,C=CCn1c(=O)c2cnc(Nc3ccc(N4CCN(C)CC4)cc3)nc2n1-c1cccc(C(C)(C)O)n1 [adavosertib],2.91

# Same assay, conditions: 0.00025 µM; days in culture: 82
row,Compound,CTG-3D luminescence at 96 h
1,CC(C)(C(=O)NCC(F)(F)C(F)(F)F)C(=O)N[C@@H]1C(=O)Nc2ccccc2-c2ccccc21,2.71
2,CCN(c1cc(C#CCN2CCOCC2)cc(C(=O)NCc2c(C)cc(C)[nH]c2=O)c1C)[C@H]1CC[C@H](N(C)CCOC)CC1,3.88
3,NC(=O)Nc1cc(-c2cccc(F)c2)sc1C(=O)N[C@H]1CCCNC1 [AZD7762],3.02
4,O=C(/C=C/c1cccnc1)NCCCCC1CCN(C(=O)c2ccccc2)CC1 [FK866],3.14
5,CCc1c2c(nc3ccc(O)cc13)-c1cc3c(c(=O)n1C2)COC(=O)[C@]3(O)CC [SN-38],3.05
6,CCN1CCN(Cc2ccc(Nc3ncc(F)c(-c4cc(F)c5nc(C)n(C(C)C)c5c4)n3)nc2)CC1 [abemaciclib],2.81
7,C=CCn1c(=O)c2cnc(Nc3ccc(N4CCN(C)CC4)cc3)nc2n1-c1cccc(C(C)(C)O)n1 [adavosertib],2.68

# Same assay, conditions: 0.00025 µM; days in culture: 91
row,Compound,CTG-3D luminescence at 96 h
1,CC(C)(C(=O)NCC(F)(F)C(F)(F)F)C(=O)N[C@@H]1C(=O)Nc2ccccc2-c2ccccc21,3.94
2,CCN(c1cc(C#CCN2CCOCC2)cc(C(=O)NCc2c(C)cc(C)[nH]c2=O)c1C)[C@H]1CC[C@H](N(C)CCOC)CC1,2.62
3,NC(=O)Nc1cc(-c2cccc(F)c2)sc1C(=O)N[C@H]1CCCNC1 [AZD7762],3.93
4,O=C(/C=C/c1cccnc1)NCCCCC1CCN(C(=O)c2ccccc2)CC1 [FK866],3.63
5,CCc1c2c(nc3ccc(O)cc13)-c1cc3c(c(=O)n1C2)COC(=O)[C@]3(O)CC [SN-38],2.86
6,CCN1CCN(Cc2ccc(Nc3ncc(F)c(-c4cc(F)c5nc(C)n(C(C)C)c5c4)n3)nc2)CC1 [abemaciclib],3.22
7,C=CCn1c(=O)c2cnc(Nc3ccc(N4CCN(C)CC4)cc3)nc2n1-c1cccc(C(C)(C)O)n1 [adavosertib],3.67

# Same assay, conditions: 0.00025 µM; days in culture: 191
row,Compound,CTG-3D luminescence at 96 h
1,CC(C)(C(=O)NCC(F)(F)C(F)(F)F)C(=O)N[C@@H]1C(=O)Nc2ccccc2-c2ccccc21,2.44
2,CCN(c1cc(C#CCN2CCOCC2)cc(C(=O)NCc2c(C)cc(C)[nH]c2=O)c1C)[C@H]1CC[C@H](N(C)CCOC)CC1,3.27
3,NC(=O)Nc1cc(-c2cccc(F)c2)sc1C(=O)N[C@H]1CCCNC1 [AZD7762],2.51
4,O=C(/C=C/c1cccnc1)NCCCCC1CCN(C(=O)c2ccccc2)CC1 [FK866],2.7
5,CCc1c2c(nc3ccc(O)cc13)-c1cc3c(c(=O)n1C2)COC(=O)[C@]3(O)CC [SN-38],2.76
6,CCN1CCN(Cc2ccc(Nc3ncc(F)c(-c4cc(F)c5nc(C)n(C(C)C)c5c4)n3)nc2)CC1 [abemaciclib],2.89
7,C=CCn1c(=O)c2cnc(Nc3ccc(N4CCN(C)CC4)cc3)nc2n1-c1cccc(C(C)(C)O)n1 [adavosertib],2.7

# Same assay, conditions: 0.00025 µM; days in culture: 209
row,Compound,CTG-3D luminescence at 96 h
1,CC(C)(C(=O)NCC(F)(F)C(F)(F)F)C(=O)N[C@@H]1C(=O)Nc2ccccc2-c2ccccc21,2.57
2,CCN(c1cc(C#CCN2CCOCC2)cc(C(=O)NCc2c(C)cc(C)[nH]c2=O)c1C)[C@H]1CC[C@H](N(C)CCOC)CC1,3.11
3,NC(=O)Nc1cc(-c2cccc(F)c2)sc1C(=O)N[C@H]1CCCNC1 [AZD7762],2.27
4,O=C(/C=C/c1cccnc1)NCCCCC1CCN(C(=O)c2ccccc2)CC1 [FK866],2.33
5,CCc1c2c(nc3ccc(O)cc13)-c1cc3c(c(=O)n1C2)COC(=O)[C@]3(O)CC [SN-38],2.28
6,CCN1CCN(Cc2ccc(Nc3ncc(F)c(-c4cc(F)c5nc(C)n(C(C)C)c5c4)n3)nc2)CC1 [abemaciclib],2.35
7,C=CCn1c(=O)c2cnc(Nc3ccc(N4CCN(C)CC4)cc3)nc2n1-c1cccc(C(C)(C)O)n1 [adavosertib],2.42

# Same assay, conditions: 0.00025 µM; days in culture: 227
row,Compound,CTG-3D luminescence at 96 h
1,CC(C)(C(=O)NCC(F)(F)C(F)(F)F)C(=O)N[C@@H]1C(=O)Nc2ccccc2-c2ccccc21,5.33
2,CCN(c1cc(C#CCN2CCOCC2)cc(C(=O)NCc2c(C)cc(C)[nH]c2=O)c1C)[C@H]1CC[C@H](N(C)CCOC)CC1,4.84
3,NC(=O)Nc1cc(-c2cccc(F)c2)sc1C(=O)N[C@H]1CCCNC1 [AZD7762],5.98
4,O=C(/C=C/c1cccnc1)NCCCCC1CCN(C(=O)c2ccccc2)CC1 [FK866],5.39
5,CCc1c2c(nc3ccc(O)cc13)-c1cc3c(c(=O)n1C2)COC(=O)[C@]3(O)CC [SN-38],4.33
6,CCN1CCN(Cc2ccc(Nc3ncc(F)c(-c4cc(F)c5nc(C)n(C(C)C)c5c4)n3)nc2)CC1 [abemaciclib],5.17
7,C=CCn1c(=O)c2cnc(Nc3ccc(N4CCN(C)CC4)cc3)nc2n1-c1cccc(C(C)(C)O)n1 [adavosertib],6.34
